Earlier results, collected in patent EP0343306A1, “Liquid pharmaceutical preparation based on theophylline with a retarding effect, and process for producing it” (CARULLA VEKAR, S.A., priority 1988, dated 1989).

Settings: in vivo

SMILES: Cn1c(=O)c2[nH]cnc2n(C)c1=O [theophylline]
- plasmatic levels associated with a significant incidence of side effects: above 20 mcg/ml
